Converted amounts (≈) assume the structure as drawn.
Tested on: S. aureus ATCC 29213
Assay: In vitro susceptibility test, antimicrobial dilution method (CLSI), MIC
Type: cell-based
Conditions: Staphylococcus aureus, ATCC29213, read-out: MIC (Minimum Inhibitory Concentration)
Description: For all the tests performed, there was a positive control of antifungal activity using fluconazole (for Malassezia) and ceftriaxone (for the bacterial strains) and a negative control (absence of the compounds) wherein correct microbial growth was evaluated.

Compound: C[C@@H]1O[C@@H](O[C@@H]2[C@@H](O)[C@H](OCCc3ccc(O)c(O)c3)O[C@H](CO)[C@H]2OC(=O)/C=C/c2ccc(O)c(O)c2)[C@H](O)[C@H](O)[C@H]1O [Verbascoside, verbascoside]
- MIC: 3000 µg/mL (≈ 4.8 mM)
